Results on two compounds are retold here after patent publication US20080004272A1, “Compositions and methods for modulating gated ion channels” (PainCeptor Pharma Corporation, priority 2006, published 2008).

In experiment [1] the target is T1, ASIC1a (Homo sapiens, UniProt P78348).
T1 sequence (P78348 1-528): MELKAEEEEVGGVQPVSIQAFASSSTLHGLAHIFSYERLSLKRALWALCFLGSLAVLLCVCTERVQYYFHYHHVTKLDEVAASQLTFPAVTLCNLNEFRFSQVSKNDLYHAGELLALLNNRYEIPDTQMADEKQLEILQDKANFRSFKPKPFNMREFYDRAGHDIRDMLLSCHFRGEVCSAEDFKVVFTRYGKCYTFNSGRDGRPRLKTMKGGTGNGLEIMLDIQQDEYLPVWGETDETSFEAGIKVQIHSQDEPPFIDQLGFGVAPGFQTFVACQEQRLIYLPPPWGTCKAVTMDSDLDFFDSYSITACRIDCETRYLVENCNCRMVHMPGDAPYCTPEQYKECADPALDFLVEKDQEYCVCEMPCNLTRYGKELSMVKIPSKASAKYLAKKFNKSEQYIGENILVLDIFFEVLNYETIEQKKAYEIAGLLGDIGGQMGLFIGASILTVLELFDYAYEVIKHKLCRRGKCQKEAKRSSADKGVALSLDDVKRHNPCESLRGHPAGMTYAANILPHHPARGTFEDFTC
Put plainly: Calcium imaging of MES-induced calcium response (FLIPR). The format is cell-based. More on the design: host or cells: HEK293.

Experiment [2] addresses T1, ASIC1a. Briefly: Whole cell patch clamp in HEK293 cells transfected with hASIC1a. More on the design: expressed in transfected cells; host or cells: Xenopus laevis oocytes (nuclear microinjection of expression vector such as pcDNA3). The experiment is classed as cell-based. As for the experimental part: Another example of an in vitro assessment method consists of using mammalian heterologous expression systems, which are known to the skilled in the art, and include a variety of mammalian cell lines such as COS, HEK, e.g., HEK293 and/or CHO, cells. Cell lines are transfected with gated ion channel(s) and used to perform electrophysiology as follows:
All experiments are performed at room temperature (20-25° C.) in voltage clamp using conventional whole cell patch clamp methods (Neher, E., et al. (1978) Pfluegers Arch 375:219-228).
The amplifier used is the EPC-9 (HEKA-electronics, Lambrect, Germany) run by a Macintosh G3 computer via an ITC-16 interface. Experimental conditions are set with the Pulse-software accompanying the amplifier. […]
Coverslips with the cells are transferred to a 15 μl experimental chamber mounted on the stage of an inverted microscope (IMT-2, Olympus) supplied with Nomarski optics. […] The cells are held at a holding voltage of −60 mV and at the start of each experiment the current is continuously measured for 45 s to ensure a stable baseline. […] Current amplitudes are measured at the peak of the responses, and effect of the compounds is calculated as the amplitude at compound equilibrium divided by the amplitude of the current evoked by the pulse just before the compound is included. […]
For orientation: The patch-clamp technique gives a direct electrical read-out from membranes.

For orientation: IC50 means the concentration at which inhibition is half-maximal. Consider `COc1ccc(F)cc1-c1cc(C#N)c(N)c2c1CCN(C)C2` [Compound 206, 8-Amino-5-(5-fluoro-2-methoxy-phenyl)-2-methyl-1,2,3,4-tetrahydro-isoquinoline-7-carbonitrile], for which the IC50 at ASIC1a [1] (ASIC1a expressing HEK293 cells, MES-induced calcium response, read-out: IC50 (FLIPR)) was 20 to 40 µM; at ASIC1a [2] (HEK293 cells, whole cell patch clamp, six point dose-response, read-out: IC50, inhibition of acid-induced hASIC1a activity), 28 µM.

As to `CN1CCc2c(-c3ccccc3)cc(C#N)c(N)c2C1` [Compound 203, 8-Amino-2-methyl-5-phenyl-1,2,3,4-tetrahydro-isoquinoline-7-carbonitrile], the results for the IC50 on ASIC1a [1] and on ASIC1a [2] were less than 10 µM and 7.5 µM, respectively.
